The text below walks through data of paper PMC11317440, “Soloxolone para-methylanilide effectively suppresses aggressive phenotype of glioblastoma cells including TGF-β1-induced glial-mesenchymal transition in vitro and inhibits growth of U87 glioblastoma xenografts in mice” (Frontiers in Pharmacology, 2024).

This assay has as its system SMAD2/3. The experiment in a line: SMAD2/3 nuclear translocation (immunofluorescence), U87 cells. The assay is classed as cell-based, human. The settings on record: U87, 7 50 nM pretreatment 48 h, TGF-β1 50 ng/mL 1 h. The procedure:
U87 cells (150,000 cells/well) were allowed to attach to glass coverslips in 24-well plates prior to 48-h incubation with compound 7 (50 nM) under serum-free conditions, followed by stimulation with TGF-β1 (50 ng/mL) for 1 h. After fixation in 4% formaldehyde for 20 min, cells were incubated with primary antibodies against Smad2/3 (1:100, ab202445) for 1 h under permeabilizing conditions (0.1% Triton X100, 5 mg/mL BSA, 37°C) and Alexa Fluor 488-conjugated secondary antibodies (1:500, ab150077) for 1 h in the dark. Finally, nuclei were stained with DAPI (1 μg/mL) for 10 min and cells were mounted on glass slides with Fluoromount-G (Thermo Fisher Scientific, Rockford, IL, USA). Images were captured using a LSM710 confocal microscope (Zeiss, Oberkochen, Germany) at ×40 magnification. Nuclear translocation was quantified by measuring the ratio of nuclear to perinuclear intensity of Alexa Fluor 488 in CellProfiler software (Broad Institute, Cambridge, MA, USA) for 50 cells per experimental group (n = 3).

`Cc1ccc(NC(=O)[C@@]2(C)CC[C@]3(C)CC[C@]4(C)[C@H](C(=O)C=C5[C@@]6(C)C=C(C#N)C(=O)C(C)(C)C6CC[C@]54C)[C@@H]3C2)cc1` (stereo partly shown) [compound 7, N-p-tolyl-2-cyano-3,12-dioxo-18βH-olean-9(11),1(2)-dien-30-amide]: the “reduction of nuclear-cytoplasmic ratio of SMAD2/3” value is 52%.
